From patent US20240158446A1, “CYCLIC COMPOUND HAVING SELECTIVE INHIBITORY ACTION ON KRAS OVER HRAS AND NRAS” (CHUGAI SEIYAKU KABUSHIKI KAISHA, priority 2021, published 2024)
Where two headings read alike, the source gives them in different places. *1 amine or outer side, *2 acyl side, *3 side chain or, on linkers, in order; H or OH if unused. Where a SMILES comes first, the peptide text is derived from it. Bridges are numbered along the chain shown (N, C = ends). [ ]: non-standard residue; d: D form. The star is where a group is joined. hPhe(3-Cl-4-CF3) = N[C@@H](CCc1ccc(C(F)(F)F)c(Cl)c1)C(=O)O; NPrPhe(4-CF3) = CCCN[C@@H](Cc1ccc(C(F)(F)F)cc1)C(=O)O; X41 = Cc1ccc(C[C@@H](C(=O)[*:2])N(CC2CCCCC2)[*:1])cc1; NMeGly(cPent) = CN[C@H](C(=O)O)C1CCCC1; Pro(4,4-F2) = O=C(O)[C@@H]1CC(F)(F)CN1; NMeD = CN[C@@H](CC(=O)O)C(=O)O; NMeL = CN[C@@H](CC(C)C)C(=O)O; Morpholide = C1CN(*)CCO1; Ac5c = NC1(C(=O)O)CCCC1; Ac4c = NC1(C(=O)O)CCC1; Sar = CNCC(=O)O

How the values were obtained:
[1] = molecular target: GDP-bound HRAS wild-type protein (Homo sapiens, UniProt P01112); assay: Binding to HRAS by surface plasmon resonance (SPR), Single Cycle Kinetics; conditions: for HRAS/KRAS (ratio of KD value with respect to GDP-bound HRAS wild-type protein to KD value with respect to KRAS): SPR KD ratio HRAS/KRAS, class symbols
[2] = molecular target: GDP-bound NRAS wild-type protein (Homo sapiens, UniProt P01111); assay: Binding to NRAS by surface plasmon resonance (SPR), Single Cycle Kinetics; conditions: for NRAS/KRAS (ratio of KD value with respect to GDP-bound NRAS wild-type protein to KD value with respect to KRAS): SPR KD ratio NRAS/KRAS, class symbols
[3] = molecular target: GDP-bound KRAS wild-type protein (Homo sapiens, UniProt P01116); assay: Binding to KRAS by surface plasmon resonance (SPR), Single Cycle Kinetics; conditions: GDP-bound KRAS wild-type protein, read-out: KRAS KD
[4] = SPR, GDP-bound HRAS wild-type protein vs GDP-bound KRAS wild-type protein
[5] = SPR, GDP-bound NRAS wild-type protein vs GDP-bound KRAS wild-type protein
[6] = SPR Single Cycle Kinetics, 1:1 binding model
[7] = SPR, GDP-bound HRAS wild-type protein vs GDP-bound KRAS wild-type protein, KD ratio class
[8] = SPR, GDP-bound NRAS wild-type protein vs GDP-bound KRAS wild-type protein, KD ratio class
[9] = SPR, Single Cycle Kinetics, 1:1 binding model

Sequence of GDP-bound NRAS wild-type protein (P01111 whole entry): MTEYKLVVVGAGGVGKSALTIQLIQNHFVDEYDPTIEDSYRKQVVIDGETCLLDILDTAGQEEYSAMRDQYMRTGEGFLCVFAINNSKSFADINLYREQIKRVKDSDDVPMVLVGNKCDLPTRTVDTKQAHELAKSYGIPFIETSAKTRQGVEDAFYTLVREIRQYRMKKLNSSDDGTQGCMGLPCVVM
Sequence of GDP-bound HRAS wild-type protein (P01112 whole entry): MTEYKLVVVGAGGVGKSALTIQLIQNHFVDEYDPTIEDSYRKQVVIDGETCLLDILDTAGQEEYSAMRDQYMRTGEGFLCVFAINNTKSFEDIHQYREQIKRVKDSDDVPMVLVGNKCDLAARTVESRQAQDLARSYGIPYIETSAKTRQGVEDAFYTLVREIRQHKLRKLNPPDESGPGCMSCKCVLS
Sequence of GDP-bound KRAS wild-type protein (P01116 whole entry): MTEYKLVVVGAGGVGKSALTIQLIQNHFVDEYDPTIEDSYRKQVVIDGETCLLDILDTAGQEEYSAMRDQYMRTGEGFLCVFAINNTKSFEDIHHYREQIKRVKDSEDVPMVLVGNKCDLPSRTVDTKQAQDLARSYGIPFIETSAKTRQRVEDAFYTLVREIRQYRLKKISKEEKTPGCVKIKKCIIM

| Kd ([3]; SPR, Single Cycle Kinetics) [nM] | Kd [3, 6] [nM] | SMILES | HRAS/KRAS (ratio of KD value for HRAS to KD value for KRAS) [1, 4] | NRAS/KRAS (ratio of KD value for NRAS to KD value for KRAS) [2, 5] | also measured |
| --- | --- | --- | --- | --- | --- |
| 0.086 |  | CCO[C@@H]1C[C@H]2C(=O)NC3(CCC3)C(=O)N(C)[C@@H](C3CCCC3)C(=O)N(C)[C@H](C(=O)N3CCCC3)CC(=O)N(C)[C@@H](CC)C(=O)N[C@@H]([C@@H](C)CC)C(=O)N(C)CC(=O)N(C)[C@H]3C/C=C\CCN(C3=O)[C@@H](Cc3ccc(C(F)(F)F)cc3)C(=O)N(C)CC(=O)N[C@@H](CCc3cc(F)c(C(F)(F)F)c(F)c3)C(=O)N2C1 [PP1090, (2S,8S,12R,14S,20S,23S,27S,30S,36S,38Z)-20-cyclopentyl-8-[2-[3,5-difluoro-4-(trifluoromethyl)phenyl]ethyl]-12-ethoxy-27-ethyl-4,19,22,26,32,35-hexamethyl-30-[(1S)-1-methylpropyl]-23-(pyrrolidine-1-carbonyl)-2-[[4-(trifluoromethyl)phenyl]methyl]spiro[1,4,7,10,16,19,22,26,29,32,35-undecazatricyclo[34.5.1.0^10,14]dotetracont-38-ene-17,1′-cyclobutane]-3,6,9,15,18,21,25,28,31,34,42-undecone] | A (a compound having 10 or more and less than 20 is denoted as A) | AA (a compound having 20 or more is denoted as AA) |  |
|  | 0.46 | CCO[C@@H]1C[C@H]2C(=O)NC3(CCCC3)C(=O)N(C)[C@@H](C3CCCC3)C(=O)N(C)[C@H](C(=O)N(C)C)CC(=O)N(C)[C@@H](C)C(=O)N[C@@H]([C@@H](C)CC)C(=O)N(C)CC(=O)N(C)[C@H]3CCCCCN(C3=O)[C@@H](Cc3ccc(C(F)(F)F)cc3)C(=O)N(C)CC(=O)N[C@@H](CCc3cc(F)c(C(F)(F)F)c(F)c3)C(=O)N2C1 [PP0475] |  |  | HRAS/KRAS (ratio of KD value with respect to HRAS to KD value with respect to KRAS) [1, 4]: B (a compound having 3 or more and less than 10 is denoted as B); NRAS/KRAS (ratio of KD value with respect to NRAS to KD value with respect to KRAS) [2, 5]: B (a compound having 3 or more and less than 10 is denoted as B) |
|  | 1.2 | CCC[C@H]1C(=O)N[C@@H]([C@@H](C)CC)C(=O)N(C)CC(=O)N(C)[C@H]2C/C=C\CCN(C2=O)[C@@H](Cc2ccc(C)cc2)C(=O)N(C)CC(=O)N[C@@H](CCc2ccc(Cl)c(Cl)c2)C(=O)N2CCCCC[C@H]2C(=O)NC2(CC(C)(C)C2)C(=O)N(C)[C@@H](C(CC)CC)C(=O)N(C)[C@H](C(=O)N(C)C)CC(=O)N1C [PP2962] |  |  | HRAS/KRAS (ratio of KD value with respect to GDP-bound HRAS wild-type protein to KD value with respect to KRAS) [1]: A (a compound having 10 or more and less than 20 is denoted as A); NRAS/KRAS (ratio of KD value with respect to GDP-bound NRAS wild-type protein to KD value with respect to KRAS) [2]: AA (a compound having 20 or more is denoted as AA) |
| 0.82 |  | CCO[C@@H]1C[C@H]2C(=O)NC3(CCC3)C(=O)N(C)[C@@H](C3CCCC3)C(=O)N(C)[C@H](C(=O)N3CCOCC3)CC(=O)N(C)[C@@H](CC(C)C)C(=O)N[C@@H]([C@@H](C)CC)C(=O)N(C)CC(=O)N(C)[C@H]3CCCCCN(C3=O)[C@@H](Cc3ccc(F)cc3OC)C(=O)N(C)CC(=O)N[C@@H](CCc3cc(F)c(C(F)(F)F)c(F)c3)C(=O)N2C1 [PP0924] | B (a compound having 3 or more and less than 10 is denoted as B) | B (a compound having 3 or more and less than 10 is denoted as B) |  |
|  |  | CCC[C@H]1C(=O)N[C@@H]([C@@H](C)CC)C(=O)N(C)CC(=O)N(C)[C@H]2C/C=C\CCN(C2=O)[C@@H](Cc2ccc(C(F)(F)F)cc2)C(=O)N(C)CC(=O)N[C@@H](CCc2cc(F)c(C(F)(F)F)c(F)c2)C(=O)N2C[C@H](OCC)C[C@H]2C(=O)NC2(CCC2)C(=O)N(C)[C@@H](C2CCCC2)C(=O)N(C)[C@H](C(=O)N(C)CCOC)CC(=O)N1C [PP1331, (2S,8S,12R,14S,20S,23S,27S,30S,36S,38Z)-20-cyclopentyl-8-[2-[3,5-difluoro-4-(trifluoromethyl)phenyl]ethyl]-12-ethoxy-N-(2-methoxyethyl)-N,4,19,22,26,32,35-heptamethyl-30-[(1S)-1-methylpropyl]-3,6,9,15,18,21,25,28,31,34,42-undecaoxo-27-propyl-2-[[4-(trifluoromethyl)phenyl]methyl]spiro[1,4,7,10,16,19,22,26,29,32,35-undecazatricyclo[34.5.1.0^10,14]dotetracont-38-ene-17,1′-cyclobutane]-23-carboxamide] |  |  | HRAS/KRAS (ratio of KD value for HRAS to KD value for KRAS) [1, 7]: A (a compound having 10 or more and less than 20 is denoted as A); NRAS/KRAS (ratio of KD value for NRAS to KD value for KRAS) [2, 8]: A (a compound having 10 or more and less than 20 is denoted as A); Kd [3, 9]: 0.08 nM |
| 0.24 |  | CCC[C@H]1C(=O)N[C@@H]([C@@H](C)CC)C(=O)N(C)CC(=O)N(C)[C@H]2C/C=C\CCN(C2=O)[C@@H](Cc2ccc(C(F)(F)F)cc2)C(=O)N(C)CC(=O)N[C@@H](CCc2ccc(C(F)(F)F)c(Cl)c2)C(=O)N2C[C@@H](C)C[C@H]2C(=O)NC2(CC(C)(C)C2)C(=O)N(C)[C@@H](C2CCCC2)C(=O)N(C)[C@H](C(=O)N(C)C)CC(=O)N1C [PP2270] | B (a compound having 3 or more and less than 10 is denoted as B) | B (a compound having 3 or more and less than 10 is denoted as B) |  |
|  | 0.33 | CCCN1C(=O)CN(C)C(=O)CN(C)C(=O)[C@H]([C@@H](C)CC)NC(=O)[C@H](CC(C)C)N(C)C(=O)C[C@@H](C(=O)N(C)C)NC(=O)[C@H](C2CCCC2)N(C)C(=O)C2(CCC2)NC(=O)[C@@H]2CC(F)(F)CN2C(=O)[C@H](CCc2ccc(C(F)(F)F)c(Cl)c2)NC(=O)CN(C)C(=O)[C@@H]1Cc1ccc(C(F)(F)F)cc1 [PP0358] ([NMeL]I[Sar][Sar][NPrPhe(4-CF3)][Sar][hPhe(3-Cl-4-CF3)][Pro(4,4-F2)][Ac4c][NMeGly(cPent)]D-NMe2; lactam N-11) | C (A compound having a KD ratio of 0.1 or more and less than 3 is denoted as C) | B (a compound having 3 or more and less than 10 is denoted as B) |  |
|  | 2.2 | CCO[C@@H]1C[C@H]2C(=O)NC3(CC(C)(C)C3)C(=O)N(C)[C@@H](CC3CCC3)C(=O)N(C)[C@H](C(=O)N(C)C)CC(=O)N(C)[C@@H](COC)C(=O)N[C@@H]([C@@H](C)CC)C(=O)N(C3CC3)CC(=O)N(C)[C@H]3C/C=C\CCN(C3=O)[C@@H](Cc3ccc(C(F)(F)F)cc3)C(=O)N(C)CC(=O)N[C@@H](CCc3ccc(C(F)(F)F)c(OC)c3)C(=O)N2C1 [PP2771] |  |  | HRAS/KRAS (ratio of KD value with respect to GDP-bound HRAS wild-type protein to KD value with respect to KRAS) [1]: A (a compound having 10 or more and less than 20 is denoted as A); NRAS/KRAS (ratio of KD value with respect to GDP-bound NRAS wild-type protein to KD value with respect to KRAS) [2]: AA (a compound having 20 or more is denoted as AA) |
|  |  | CC[C@H](C)[C@@H]1NC(=O)[C@H](CC2CC2)N(C)C(=O)C[C@@H](C(=O)N(C)C)N(C)C(=O)[C@H](C2CCCC2)N(C)C(=O)C2(CC(C)(C)C2)NC(=O)[C@@H]2C[C@@H](F)CN2C(=O)[C@H](CCc2cc(F)c(C(F)(F)F)c(F)c2)NC(=O)CN(C)C(=O)[C@H](Cc2ccc(C(F)(F)F)cc2)N2CC/C=C\C[C@@H](C2=O)N(C)C(=O)CN(C)C1=O [PP1501, (2S,8S,12R,14S,20S,23S,27S,30S,36S,38Z)-20-cyclopentyl-27-(cyclopropylmethyl)-8-[2-[3,5-difluoro-4-(trifluoromethyl)phenyl]ethyl]-12-fluoro-N,N,3′,3′,4,19,22,26,32,35-decamethyl-30-[(1S)-1-methylpropyl]-3,6,9,15,18,21,25,28,31,34,42-undecaoxo-2-[[4-(trifluoromethyl)phenyl]methyl]spiro[1,4,7,10,16,19,22,26,29,32,35-undecazatricyclo[34.5.1.0^10,14]dotetracont-38-ene-17,1′-cyclobutane]-23-carboxamide] |  |  | HRAS/KRAS (ratio of KD value for HRAS to KD value for KRAS) [1, 7]: A (a compound having 10 or more and less than 20 is denoted as A); NRAS/KRAS (ratio of KD value for NRAS to KD value for KRAS) [2, 8]: A (a compound having 10 or more and less than 20 is denoted as A); Kd [3, 9]: 0.024 nM |
|  | 9.3 | CC[C@H](C)[C@@H]1NC(=O)[C@H](CC(C)C)N(C)C(=O)C[C@@H](C(=O)N2CCOCC2)N(C)C(=O)[C@H](C2CCCC2)N(C)C(=O)C2(CCCC2)NC(=O)[C@@H]2CCCN2C(=O)[C@H](CCc2ccc(C(F)(F)F)c(Cl)c2)NC(=O)CN(C)C(=O)[C@H](Cc2ccc(C)cc2)N(CC2CCCCC2)C(=O)CN(C)C(=O)CN(C)C1=O [PP0097] ([NMeL]I[Sar][Sar][X41][Sar][hPhe(3-Cl-4-CF3)]P[Ac5c][NMeGly(cPent)][NMeD]-Morpholide; lactam N-11) | C (A compound having a KD ratio of 0.1 or more and less than 3 is denoted as C) | C (A compound having a KD ratio of 0.1 or more and less than 3 is denoted as C) |  |
| 0.11 |  | CCO[C@@H]1C[C@H]2C(=O)NC3(CC(C)(C)C3)C(=O)N(C)[C@@H](C3CCCC3)C(=O)N(C)[C@H](C(=O)N3CCCC3)CC(=O)N(C)[C@H]3CCCCCc4ccc(cc4)C[C@@H](C(=O)N(C)CC(=O)N[C@@H](CCc4ccc(C(F)(F)F)c(OC)c4)C(=O)N2C1)N1CC/C=C\C[C@@H](C1=O)N(C)C(=O)CN(C)C(=O)[C@H]([C@@H](C)CC)NC3=O [PP3037, (1S,7S,11R,13S,19S,22S,26S,29S,35S,37Z)-19-cyclopentyl-11-ethoxy-7-[2-[3-methoxy-4-(trifluoromethyl)phenyl]ethyl]-3,3′,3′,18,21,25,31,34-octamethyl-29-[(1S)-1-methylpropyl]-22-(pyrrolidine-1-carbonyl)spiro[3,6,9,15,18,21,25,28,31,34,41-undecazapentacyclo[24.15.10.2^43,46.1^35,41.0^9,13]tetrapentaconta-37,43(53),44,46(52)-tetraene-16,1′-cyclobutane]-2,5,8,14,17,20,24,27,30,33,54-undecone] | B (a compound having 3 or more and less than 10 is denoted as B) | A (a compound having 10 or more and less than 20 is denoted as A) |  |
